Source: patent US20250017889A1, “INHIBITORS OF P1B-TYPE ATPASES” (THE CURATORS OF THE UNIVERSITY OF MISSOURI, priority 2021, published 2025)

Columns and labels:
[1] = test system: ΔcopA/ΔcopB strain of S. aureus; experiment: Growth of copper-sensitive ΔcopA/ΔcopB mutant strain of S. aureus; type: cell-based, Staphylococcus aureus; conditions: MKV3 with copper 50 μM
Experimental: Methicillin-resistant Staphylococcus aureus (MRSA) is a human pathogen that expresses two Cu-transporting P1B-type ATPases, CopA and CopB, which are known to enhance the virulence of this bacterium. 19A illustrates CopA and CopB copper exporters at the plasma membrane of S. aureus. […] The growth of the ΔcopA/ΔcopB strain was inhibited by approximately 50% when copper alone (50 μM) was added to the culture medium.
Wild type MRSA expresses two copper-exporting P1B-type ATPases, CopA and CopB that are required for copper tolerance (FIG. 19A). […] The same experiment was performed using MRSA in which both CopA and CopB genes were deleted (ΔcopA/ΔcopB). Consistent with the known role of CopA and CopB in copper tolerance, the growth of the ΔcopA/ΔcopB strain was inhibited by approximately 50% when copper alone (50 μM) was added to the culture medium (FIG. 19C).

[2] = test system: 4T1, B16 and HEK293 cell lines; experiment: Cellular copper concentrations by ICP-MS; type: cell-based; conditions: 10 μM, 24 hours
Experimental: Since ATP7A functions in copper export from cells, an inhibitor of ATP7A activity would be expected to increase cellular copper concentrations. […] After 24 hours, cellular copper concentrations were measured using inductively coupled plasma mass spectroscopy (ICP-MS).

4T1 mammary cancer cells = experiment: Orthotopic 4T1 mammary tumor growth and lung metastasis in mice; type: in vivo, BALB/c mice
[3] = test system: tyrosinase activity in B16 melanoma cells; experiment: Tyrosinase activity in wild type B16 melanoma cells (L-DOPA to DOPAchrome), proxy for ATP7A inhibition; type: cell-based
Description: Tyrosinase is a cuproenzyme involved in melanogenesis that receives copper via ATP7A in the secretory pathway. […] Thus, reductions in tyrosinase activity in wild type B16 cells can be used as a proxy for inhibition of ATP7A. […]

ATP7B = biological target: T1, ATP7B (Homo sapiens, UniProt P35670); experiment: Microscale thermophoresis (MST) binding to GFP-ATP7B in HEK293 cell lysates; conditions: MST analysis; read-out: affinity for ATP7B
T1 construct: expressed in transfected cells; host or cells: HEK293 (detergent-free lysate)
T1 sequence (P35670 1-1465): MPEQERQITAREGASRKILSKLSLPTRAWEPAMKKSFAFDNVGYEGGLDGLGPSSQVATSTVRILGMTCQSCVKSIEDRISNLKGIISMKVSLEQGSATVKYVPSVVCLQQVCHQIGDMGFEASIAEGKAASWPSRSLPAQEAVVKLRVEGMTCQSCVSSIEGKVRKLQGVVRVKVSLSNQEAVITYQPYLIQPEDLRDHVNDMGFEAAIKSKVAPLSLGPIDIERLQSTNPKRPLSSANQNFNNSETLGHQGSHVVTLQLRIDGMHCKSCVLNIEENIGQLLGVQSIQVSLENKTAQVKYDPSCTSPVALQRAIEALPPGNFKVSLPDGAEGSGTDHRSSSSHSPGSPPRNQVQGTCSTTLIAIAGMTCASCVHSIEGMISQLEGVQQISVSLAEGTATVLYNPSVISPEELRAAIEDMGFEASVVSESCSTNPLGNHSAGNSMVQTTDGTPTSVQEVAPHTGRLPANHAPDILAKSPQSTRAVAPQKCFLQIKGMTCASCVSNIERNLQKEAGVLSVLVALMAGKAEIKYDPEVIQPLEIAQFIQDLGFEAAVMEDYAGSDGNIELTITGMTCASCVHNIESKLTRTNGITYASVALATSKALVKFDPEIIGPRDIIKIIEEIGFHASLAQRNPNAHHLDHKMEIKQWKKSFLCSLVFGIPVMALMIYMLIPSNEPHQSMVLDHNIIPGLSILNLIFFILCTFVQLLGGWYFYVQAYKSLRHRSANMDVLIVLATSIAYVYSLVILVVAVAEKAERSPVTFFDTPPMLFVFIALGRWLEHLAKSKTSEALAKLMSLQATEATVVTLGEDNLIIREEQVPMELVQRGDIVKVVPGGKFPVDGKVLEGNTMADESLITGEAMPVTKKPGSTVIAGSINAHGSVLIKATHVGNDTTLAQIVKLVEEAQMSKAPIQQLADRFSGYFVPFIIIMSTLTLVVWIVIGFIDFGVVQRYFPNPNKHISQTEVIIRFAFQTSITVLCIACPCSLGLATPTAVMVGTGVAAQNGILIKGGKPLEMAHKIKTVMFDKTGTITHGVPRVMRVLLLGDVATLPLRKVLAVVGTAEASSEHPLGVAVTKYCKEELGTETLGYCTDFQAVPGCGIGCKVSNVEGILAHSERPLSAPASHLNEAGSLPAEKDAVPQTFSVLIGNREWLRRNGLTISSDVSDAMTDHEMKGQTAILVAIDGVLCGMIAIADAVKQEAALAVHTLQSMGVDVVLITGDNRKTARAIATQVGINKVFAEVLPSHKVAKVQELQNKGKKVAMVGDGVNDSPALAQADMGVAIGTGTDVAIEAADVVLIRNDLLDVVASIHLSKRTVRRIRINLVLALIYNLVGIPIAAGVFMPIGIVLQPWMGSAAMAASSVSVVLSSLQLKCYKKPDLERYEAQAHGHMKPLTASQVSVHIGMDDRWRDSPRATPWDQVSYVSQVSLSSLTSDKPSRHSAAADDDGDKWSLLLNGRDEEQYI
Description: Coordinating residues D935 and E798 are predicted to bind copper during transport.

[4] = intravenous 50 mg/kg every Tuesday and Thursday for 3 weeks
[5] = subcutaneous 50 mg/kg every Monday, Wednesday and Friday for 3 weeks

N#CC(C(=O)Nc1cccc(C(F)(F)F)c1)C(=S)Nc1ccccc1Cl (stereo not drawn) [MKV3]
copper sensitivity in the ΔcopA/ΔcopB strain [1]: did not increase copper sensitivity
cellular copper concentrations [2]: significantly increased
metastatic lung burden (4T1 mammary cancer cells; [4]): reduced
weights of 4T1 primary tumors (4T1 mammary cancer cells; [4]): reduced
lung metastasis (4T1 mammary cancer cells; [5]): significantly reduced
primary tumor growth (4T1 mammary cancer cells; [5]): significantly reduced
in situ tyrosinase activity ([3]; 5 μM, 24 h, wild type B16 melanoma cells): loss of tyrosinase activity
IC50 ([3]; Mus musculus, B16 cells): 2.96 ± 0.007 µM
Kd (ATP7B): 76 nM
